This note sets out measurements from patent US20030215899A1, “Reversible oxidation of protein tyrosine phosphatases” (CEPTYR, Inc., priority 2002, published 2003).

Experiment [1] has as its system PTPs in peripheral blood mononuclear lymphocytes. Nature of the experiment: in-gel protection assay, PHA-stimulated peripheral blood mononuclear lymphocytes. In kind it is cell-based, human. As to conditions: 50 mM IAA, cells without ASBA-1 pretreatment.
Method: Peripheral blood mononuclear lymphocytes were purified from human blood. In 5 ml media (RPMI), 2×10^7 cells were incubated in 50 μM ASBA-1 (PTP specific inhibitor) for 90 minutes and stimulated with phytohemagglutinin (PHA, 0.5 μL of 5.0 mg/ml stock) for 2, 10 or 30 min. […] Desalted proteins were separated on a 2 ml Source Q anion exchange column (Amersham Pharmacia Biotech) using a 0-1M NaCl gradient in 20 mM Tris, pH 7.5; 1 mM EDTA; 0.05% Triton X-100.
The target in another experiment is SHP-2 (E76A mutant) (Homo sapiens, UniProt Q06124, E76A). It is filed as biochemical.
The test system of the next experiment is PTPs in Rat-1 cells. Nature of the experiment: modified in-gel PTP activity assay of Rat-1 cell lysates. It is filed as cell-based. From the text:
To determine whether ROS stimulated intracellular tyrosine phosphorylation through the oxidation and inhibition of cellular PTPs, a modified in-gel PTP activity assay was devised, as follows: As substrate, poly (4:1) Glu-Tyr (Sigma) was labeled with [γ-^32P]-ATP using the GST-FER fusion PTK, as described previously (Shen et al., 1998 J. Biol. Chem. 273:6474-81). The labeled substrates were used within three weeks to limit the variation of its specific activity from experiment to experiment. The lysis buffer (25 mM CH3COONa, 1% NP-40, 150 mM NaCl, 10% glycerol, pH 5.5) was degassed at 4° C. for overnight, before catalase and superoxide dismutase (both 100 μg/ml), protease inhibitors and 10 mM iodoacetic acid (IAA) were added. Following stimulation, cells were lysed under anaerobic conditions in an argon chamber. Lysates (25 μg) were processed as described herein and an “in-gel” phosphatase assay (Burridge and Nelson, 1995) was conducted using SDS-PAGE gels containing a radioactively-labeled substrate (1.5×10^6 cpm/20 ml gel solution, approximately 2 μM p-Tyr).
Cells were triggered with the appropriate stimulus and harvested under anaerobic conditions in lysis buffer containing IAA. Those PTPs that had not encountered ROS in the cell became irreversibly inactivated by alkylation of their active site Cys with IAA. However, in contrast, any PTPs in which the active site Cys had been oxidized in response to the stimulus were resistant to alkylation. For the “in-gel” phosphatase assay, a 10% SDS-PAGE gel was cast containing a radioactively-labeled substrate. An aliquot of cell lysate was subjected to SDS-PAGE and proteins in the gel were sequentially denatured, then renatured in the presence of reducing reagents. […] The reaction was then terminated by fixing, staining and destaining the gel. Finally the gel was dried and exposed to film. The presence of a PTP was visualized by substrate dephosphorylation, as the appearance of a clear, white area on the black background of labeled substrate.

Another experiment deals with T1, TC45 (45 kDa PTP) (Rattus norvegicus, UniProt P35233).
T1 construct: endogenous in cells; host or cells: Rat-1 fibroblasts
T1 sequence (P35233 1-382 isoform P35233-2): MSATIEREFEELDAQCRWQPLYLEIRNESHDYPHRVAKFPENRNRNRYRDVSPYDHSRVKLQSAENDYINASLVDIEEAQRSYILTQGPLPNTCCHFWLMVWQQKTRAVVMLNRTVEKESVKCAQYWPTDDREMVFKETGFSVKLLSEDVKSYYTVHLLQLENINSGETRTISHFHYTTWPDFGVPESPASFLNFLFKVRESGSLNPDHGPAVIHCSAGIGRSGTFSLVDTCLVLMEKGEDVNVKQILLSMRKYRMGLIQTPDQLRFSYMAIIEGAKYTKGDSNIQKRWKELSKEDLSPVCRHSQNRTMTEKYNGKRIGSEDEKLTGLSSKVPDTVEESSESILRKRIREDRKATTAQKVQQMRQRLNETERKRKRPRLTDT
As to the kind of experiment: modified in-gel PTP assay (RCML substrate), insulin stimulated Rat-1 cells. As to conditions: 50 nM insulin, serum-starved Rat-1 cells. In kind it is cell-based. The protocol:
(§1) The effect of insulin-induced H2O2 production on PTP oxidation was examined using the modified in-gel PTP assay essentially as described in Example 1. Serum-starved Rat-1 cells were exposed to 50 nM insulin for 2, 5, 10, 20, and 30 minutes. Lysates were prepared under anaerobic conditions in the presence of 10 mM IAA and then subjected to in-gel PTP assays. The substrate incorporated into the SDS-PAGE gels for these assays was ^32P-labeled reduced, carboxamidomethylated and maleylated lysozyme (RCML) (1.5×10^6 cpm/20 ml gel solution, ˜2 μM p-Tyr).
(§2) The oxidized 45 kDa and 50 kDa PTPs were identified as TC-45 and PTP1B, respectively, by immunodepletion and immunoblotting. Total cell lysates were prepared as described in Example 1. Lysate (400 μg) was incubated with normal IgG, anti-PTP1B antibody (FG6, LaMontagne et al., Mol. Cell. Biol. 18:2965-75 (1998)), or anti-TC45 antibody (1910H, Lorenzen et al., J. Cell. Biol. 131:631-43 (1995)) coupled to protein G-Sepharose ^T beads (Amersham Biosciences). After the immunoprecipitation step, the immune complexes and supernatants were collected and subjected to in-gel PTP assays. Immunodepletion of the 50 kDa PTP from the lysate with anti-PTP1B antibody is shown in FIG. 11B, and immunodepletion of the 45 kDa PTP with antibody specific for TC45 is shown in FIG. 11C. […]

Another experiment concerns the target T2, PTP1B (50 kDa PTP) (Rattus norvegicus, UniProt P20417).
T2 construct: endogenous in cells; host or cells: Rat-1 fibroblasts
T2 sequence (P20417 1-432): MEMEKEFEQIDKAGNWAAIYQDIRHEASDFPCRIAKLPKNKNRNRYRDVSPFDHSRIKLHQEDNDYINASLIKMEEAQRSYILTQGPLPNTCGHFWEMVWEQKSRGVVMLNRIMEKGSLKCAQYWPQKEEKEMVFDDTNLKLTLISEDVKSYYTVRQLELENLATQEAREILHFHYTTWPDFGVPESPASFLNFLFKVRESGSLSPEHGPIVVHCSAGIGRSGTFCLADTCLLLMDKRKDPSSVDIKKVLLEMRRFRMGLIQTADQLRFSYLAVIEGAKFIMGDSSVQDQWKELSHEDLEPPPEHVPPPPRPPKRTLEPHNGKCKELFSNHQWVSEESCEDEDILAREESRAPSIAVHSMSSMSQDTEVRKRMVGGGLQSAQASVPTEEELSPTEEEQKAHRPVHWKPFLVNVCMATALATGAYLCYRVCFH
Described as above. As to conditions: 50 nM insulin, serum-starved Rat-1 cells. In kind it is cell-based. The protocol: as §1, §2

Entries after “also recorded” stand apart in the source; their conditions may differ.

Take `O=C(O)CI` [IAA, iodoacetic acid]: the “inactivation of PTPs” value in experiment [1] is on record as “inactivated by IAA”. The “inactivation of purified SHP-2” value on SHP-2 (E76A mutant) is on record as “inactivated by IAA”. Also, the “inactivation of PTPs in lysate by alkylation” value with PTPs in Rat-1 cells is recorded as “effectively inactivated PTPs”.

For the compound “insulin: polypeptide hormone used as stimulus”, the “oxidation of 45 kDa PTP (TC45)” value in the experiment with TC45 (45 kDa PTP) is given as “transiently oxidized; also recorded: induced the transient oxidation”. For the same compound, the “oxidation of 50 kDa PTP (PTP1B)” value with PTP1B (50 kDa PTP) is “transiently oxidized; also recorded: induced the transient oxidation”.
